Measurements as given in PubChem BioAssay (NCI).
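These data come from cells grown in 96-well plates and exposed to compound for 48 hours at five concentrations. At the TGI there is no net growth.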

Assays:
Experiment in all cases: NCI tumour cell line growth inhibition, 48 h
[1] = system: MDA-MB-435
[2] = system: OVCAR-8 ovarian
[3] = system: UACC-62 melanoma
[4] = system: MOLT-4 leukemia
[5] = system: RXF 393 renal
[6] = system: SN12C renal
[7] = system: IGROV1 ovarian
[8] = system: OVCAR-4 ovarian
[9] = system: HCC-2998 colon
[10] = system: T-47D breast
[11] = system: OVCAR-5 ovarian
[12] = system: CCRF-CEM leukemia
[13] = system: SK-MEL-5 melanoma
[14] = system: SK-MEL-28 melanoma
[15] = system: MDA-N
[16] = system: SF-295 CNS
[17] = system: BT-549 breast
[18] = system: SF-539 CNS
[19] = system: UACC-257 melanoma
[20] = system: SK-OV-3 ovarian
[21] = system: A498 renal
[22] = system: SR leukemia
[23] = system: SK-MEL-2 melanoma
[24] = system: M14 melanoma
[25] = system: NCI/ADR-RES ovarian
[26] = system: A549 NSCLC
[27] = system: HT29 colon
[28] = system: HS 578T breast
[29] = system: MDA-MB-231 breast
[30] = system: RPMI-8226 leukemia
[31] = system: NCI-H460 lung
[32] = system: NCI-H23 lung
[33] = system: MCF7 breast
[34] = system: SW-620 colon
[35] = system: K-562 leukemia
[36] = system: PC-3 prostate
[37] = system: LOX IMVI melanoma
[38] = system: DU-145 prostate
[39] = system: ACHN renal
[40] = system: EKVX NSCLC
[41] = system: U251 CNS
[42] = system: SNB-19 CNS
[43] = system: SF-268 CNS
[44] = system: HOP-92 NSCLC
[45] = system: HOP-62 NSCLC
[46] = system: CAKI-1 renal
[47] = system: SNB-75 CNS
[48] = system: HCT-15 colon
[49] = system: 786-0 renal
[50] = system: OVCAR-3 ovarian
[51] = system: TK-10 renal
[52] = system: HCT-116 colon
[53] = system: NCI-H522 lung
[54] = system: KM12 colon
[55] = system: UO-31 renal
[56] = system: MALME-3M melanoma
[57] = system: COLO 205 colon
[58] = system: NCI-H226 lung

OC/C=C/[C@H](OCc1ccccc1)[C@H](/C=C/CO)OCc1ccccc1
TGI [1]: > 100 µM | TGI [2]: > 100 µM | TGI [3]: > 100 µM | TGI [4]: 40 µM | TGI [5]: > 100 µM | TGI [6]: > 100 µM | TGI [7]: > 100 µM | TGI [8]: 95 µM | TGI [9]: > 100 µM | TGI [10]: 88.8 µM | TGI [11]: > 100 µM | TGI [12]: 51.4 µM | TGI [13]: > 100 µM | TGI [14]: > 100 µM | TGI [15]: > 100 µM | TGI [16]: > 100 µM | TGI [17]: > 100 µM | TGI [18]: > 100 µM | TGI [19]: > 100 µM | TGI [20]: > 100 µM | TGI [21]: > 100 µM | TGI [22]: 39.6 µM | TGI [23]: > 100 µM | TGI [24]: > 100 µM | TGI [25]: > 100 µM | TGI [26]: > 100 µM | TGI [27]: 59.9 µM | TGI [28]: > 100 µM | TGI [29]: > 100 µM | TGI [30]: 42.8 µM | TGI [31]: > 100 µM | TGI [32]: > 100 µM | TGI [33]: > 100 µM | TGI [34]: > 100 µM | TGI [35]: 54.7 µM | TGI [36]: > 100 µM | TGI [37]: 47.4 µM | TGI [38]: > 100 µM | TGI [39]: > 100 µM | TGI [40]: > 100 µM | TGI [41]: 69.1 µM | TGI [42]: 85.9 µM | TGI [43]: 94.6 µM | TGI [44]: > 100 µM | TGI [45]: > 100 µM | TGI [46]: > 100 µM | TGI [47]: > 100 µM | TGI [48]: > 100 µM | TGI [49]: > 100 µM | TGI [50]: > 100 µM | TGI [51]: > 100 µM | TGI [52]: > 100 µM | TGI [53]: > 100 µM | TGI [54]: > 100 µM | TGI [55]: > 100 µM | TGI [56]: > 100 µM | TGI [57]: > 100 µM | TGI [58]: > 100 µM

O=[N+]([O-])c1ccccc1N=Nc1c(O)[nH]c2ccc(S(=O)(=O)O)cc12
TGI [1]: > 100 µM | TGI [2]: > 100 µM | TGI [3]: > 100 µM | TGI [4]: > 100 µM | TGI [5]: > 100 µM | TGI [6]: > 100 µM | TGI [7]: > 100 µM | TGI [8]: > 100 µM | TGI [10]: > 100 µM | TGI [11]: > 100 µM | TGI [13]: > 100 µM | TGI [14]: > 100 µM | TGI [15]: > 100 µM | TGI [16]: > 100 µM | TGI [17]: > 100 µM | TGI [18]: > 100 µM | TGI [19]: > 100 µM | TGI [20]: > 100 µM | TGI [21]: > 100 µM | TGI [22]: > 100 µM | TGI [23]: > 100 µM | TGI [24]: > 100 µM | TGI [25]: > 100 µM | TGI [26]: > 100 µM | TGI [27]: > 100 µM | TGI [28]: > 100 µM | TGI [29]: > 100 µM | TGI [30]: > 100 µM | TGI [31]: > 100 µM | TGI [32]: > 100 µM | TGI [33]: > 100 µM | TGI [34]: > 100 µM | TGI [35]: > 100 µM | TGI [36]: > 100 µM | TGI [37]: > 100 µM | TGI [38]: > 100 µM | TGI [39]: > 100 µM | TGI [40]: > 100 µM | TGI [41]: > 100 µM | TGI [42]: > 100 µM | TGI [43]: > 100 µM | TGI [44]: > 100 µM | TGI [45]: > 100 µM | TGI [46]: > 100 µM | TGI [47]: > 100 µM | TGI [48]: > 100 µM | TGI [49]: > 100 µM | TGI [50]: > 100 µM | TGI [51]: > 100 µM | TGI [52]: > 100 µM | TGI [53]: > 100 µM | TGI [54]: > 100 µM | TGI [55]: > 100 µM | TGI [56]: > 100 µM | TGI [57]: > 100 µM | TGI [58]: > 100 µM

CCOC(=O)Nc1cc(NC(/C=N/NC(C)=O)C(=O)OCC)c(OC)cc1NC(C)=O (centres undefined)
TGI [1]: > 100 µM | TGI [2]: > 100 µM | TGI [3]: > 100 µM | TGI [4]: > 100 µM | TGI [5]: > 100 µM | TGI [6]: > 100 µM | TGI [7]: > 100 µM | TGI [8]: > 100 µM | TGI [9]: > 100 µM | TGI [10]: > 100 µM | TGI [11]: > 100 µM | TGI [12]: > 100 µM | TGI [13]: > 100 µM | TGI [14]: > 100 µM | TGI [15]: > 100 µM | TGI [16]: > 100 µM | TGI [17]: > 100 µM | TGI [19]: > 100 µM | TGI [20]: > 100 µM | TGI [21]: > 100 µM | TGI [22]: > 100 µM | TGI [23]: > 100 µM | TGI [24]: > 100 µM | TGI [25]: > 100 µM | TGI [26]: > 100 µM | TGI [27]: > 100 µM | TGI [28]: > 100 µM | TGI [29]: > 100 µM | TGI [30]: > 100 µM | TGI [31]: > 100 µM | TGI [32]: > 100 µM | TGI [33]: > 100 µM | TGI [34]: > 100 µM | TGI [35]: > 100 µM | TGI [36]: > 100 µM | TGI [38]: > 100 µM | TGI [39]: > 100 µM | TGI [40]: > 100 µM | TGI [41]: > 100 µM | TGI [42]: > 100 µM | TGI [43]: > 100 µM | TGI [44]: > 100 µM | TGI [45]: > 100 µM | TGI [46]: > 100 µM | TGI [47]: > 100 µM | TGI [48]: > 100 µM | TGI [49]: > 100 µM | TGI [50]: > 100 µM | TGI [51]: > 100 µM | TGI [52]: > 100 µM | TGI [54]: > 100 µM | TGI [55]: > 100 µM | TGI [56]: > 100 µM | TGI [57]: > 100 µM | TGI [58]: > 100 µM
